Data: patent publication US20210294217A1, “ACTINIC RAY-SENSITIVE OR RADIATION-SENSITIVE RESIN COMPOSITION, RESIST FILM, PATTERN FORMING METHOD, AND METHOD FOR MANUFACTURING ELECTRONIC DEVICE” (FUJIFILM Corporation, priority 2019, published 2021)

Assay: acid dissociation constant pKa determined by computation (ACD/Labs Software Package 1; Gaussian 16 DFT where not calculable)
Details: acid generated from photoacid generator B
From the text: In the present specification, an acid dissociation constant (pKa) represents a pKa in an aqueous solution, and is specifically a value determined by computation from a value based on a Hammett's substituent constant and database of publicly known literature values, using the following software package 1. Any of the pKa values described in the present specification indicates values determined by computation using the software package.
Software Package 1: Advanced Chemistry Development (ACD/Labs) Software V 8.14 for Solaris (1994-2007 ACD/Labs).
As described above, the pKa in the present specification refers to a value determined by computation from a value based on a Hammett's substituent constant and database of publicly known literature values, using the software package 1, but in a case where the pKa cannot be calculated by the method, a value obtained by Gaussian 16 based on density functional theory (DFT) shall be adopted.
In addition, the pKa in the present specification refers to a “pKa in an aqueous solution” as described above, but in a case where the pKa in an aqueous solution cannot be calculated, a “pKa in a dimethyl sulfoxide (DMSO) solution” shall be adopted.
Furthermore, in the measurement of the acid dissociation constant pKa of an acid generated from the photoacid generator B, specifically, the pKa is a value determined by subjecting a compound formed by substituting each cationic moiety in the compounds B-1 to B-25 with H^+ (for example, in a case of the compound B-1, a compound formed by substituting the triphenylsulfonium cation with H^+) to computation from a value based on a Hammett's substituent constant and database of publicly known literature values, using Software Package 1 of ACD/Labs, as described above. In addition, in a case where pKa could not be calculated by the method, a value obtained by Gaussian 16 based on density functional theory (DFT) was adopted.
In the following table, “pKa1” represents an acid dissociation constant of the first stage, “pKa2” represents an acid dissociation constant of the second stage, and “pKa3” represents an acid dissociation constant of the third stage. A smaller value of pKa means a higher acidity. […]
In the case of O=C(O)C(F)(F)C(F)(F)C(F)(F)C(=O)OC12CC3CC(CC(COC(=O)C(F)(F)S(=O)(=O)O)(C3)C1)C2 [B-3], the “Difference between acid dissociation constant a1 and acid dissociation constant a2” value is reported as 2.92.
For O=C(COC(=O)C(F)(F)S(=O)(=O)O)NC(=O)C(F)(F)F [B-4], the “Difference between acid dissociation constant a1 and acid dissociation constant a2” value was 9.23.
For CS(=O)(=O)NC(=O)C(F)(F)C(F)(F)C(F)(F)C(=O)OCC(F)S(=O)(=O)O (centres unmarked) [B-5], the “Difference between acid dissociation constant a1 and acid dissociation constant a2” value was 2.55.
For O=C(OCCCS(=O)(=O)O)C(F)(F)S(=O)(=O)O [B-6], the “Difference between acid dissociation constant a1 and acid dissociation constant a2” value was 4.82.
With CC1(C)C2CCC1(CS(=O)(=O)NC(=O)C(F)(F)C(F)(F)C(F)(F)F)C(OC(=O)C(F)S(=O)(=O)O)C2 (centres unmarked) [B-8] the “Difference between acid dissociation constant a1 and acid dissociation constant a2” value was 2.20.
In the case of O=C(O)N1CCN(S(=O)(=O)C(F)(F)C(F)(F)C(F)(F)S(=O)(=O)NS(=O)(=O)C(F)(F)F)CC1 [B-13], the “Difference between acid dissociation constant a1 and acid dissociation constant a2” value is reported as 15.11.
In the case of O=C(O)CCCOC(=O)C(CS(=O)(=O)O)C(F)(F)F (centres unmarked) [B-14], the “Difference between acid dissociation constant a1 and acid dissociation constant a2” value is reported as 3.63.
With O=C(O)C1CCCCC1C(=O)OCC(F)C(F)(F)S(=O)(=O)O (centres unmarked) [B-17] the “Difference between acid dissociation constant a1 and acid dissociation constant a2” value was 7.24.
With O=S(=O)(O)NCCOC1CCCC(C(F)(F)S(=O)(=O)O)C1 (centres unmarked) [B-18] the “Difference between acid dissociation constant a1 and acid dissociation constant a2” value was 3.2.
For O=C(CC(F)(F)F)NS(=O)(=O)C(F)(F)C(F)(F)C(F)(F)S(=O)(=O)NS(=O)(=O)C(F)(F)F [B-22], the “Difference between acid dissociation constant a1 and acid dissociation constant a2” value was 10.35.
For O=C(NS(=O)(=O)C(F)(F)C(F)(F)C(F)(F)S(=O)(=O)NS(=O)(=O)C(F)(F)F)c1cc(C(F)(F)F)cc(C(F)(F)F)c1 [B-24], the “Difference between acid dissociation constant a1 and acid dissociation constant a2” value was 9.95.
